One compound from US20250249110A1, “ANTIMICROBIAL PEPTIDE DERIVATIVE AND USE THEREOF” (SICHUAN UNIVERSITY, priority 2016, published 2025) can be followed below.

Where a SMILES comes first, the peptide text is derived from it. The star is where a group is joined. Succinyl(4-O-cholesteryl) = CC(C)CCC[C@@H](C)[C@H]1CC[C@H]2[C@@H]3CC=C4C[C@@H](OC(=O)CCC(=O)*)CC[C@]4(C)[C@H]3CC[C@]12C

Series [1] is described as follows: Critical micelle concentration by pyrene fluorescence probe spectroscopy. In kind it is physicochemical. To be noted: aqueous solution. From the text:
DP7-C can be self-assembled into micelles in aqueous solution. We detected the critical micelle concentration (CMC) of DP7-C by the pyrene fluorescence probe spectroscopy.
The fluorescence emission spectrum of pyrene in aqueous solution has five fluorescence peaks, and the ratio of the first emission spectrum light intensity I1 to the third emission spectrum light intensity I3 in aqueous solution (the ratio of fluorescence intensity at 373 nm to that at 384 nm) is about 1.8. According to the literature, the surfactant may solubilize nonpolar organic compounds, and the surfactant at different concentrations may solubilize pyrene to varying degrees. Thus, the solubilizing ability of the solution will have an obvious mutation point after the concentration of surfactant exceeds the critical micelle concentration (CMC). […] Therefore, the CMC of […] in the solution can be determined by measuring the fluorescence spectra of pyrene in DP7-C solutions with different concentrations. […] Then, detect I1 and I3 by a fluorescence spectrophotometer. Add different volumes of sample mother liquor to BD tubes containing trace pyrene to reach the concentrations of 0.0001, 0.001, 0.01, 0.025, 0.05, 0.10, 0.125, 0.25, 0.5, 1.0 and 1.5 mg/ml respectively, and determine the fluorescence spectra of each solution. […]

The test system of series [2] is macrophages, neutrophils and monocytes in the abdominal cavity. Kind of series: Detection of activated immune-related cells in abdominal cavity (flow cytometry). In kind it is in vivo, mouse. To be noted: 24 h after 200 μL of 1 mg/mL i.p. How it is done:
Grouping: The mice are randomly divided into two groups (NS group and DP7-C group) with 5 mice in each group.
Each mouse in the DP7-C group is given 200 μL of 1 mg/mL DP7-C, while each mouse in the NS group is injected with 200 μL of normal saline. The mice of both groups are killed 24 h later. Each mouse is intraperitoneally injected with 5 mL of normal saline. By gently massaging the abdomen, the ascites in the abdominal cavity is aspirated to calculate the cell concentration and total cell count there. The lymphocyte typing of the ascites is detected by a flow cytometry, the percentage of macrophages, neutrophils and inflammatory monocytes in total cells is analyzed, and the number of macrophages, neutrophils and inflammatory monocytes is calculated according to the results of flow cytometry and the total number of cells in ascites.
(In general: A flow cytometer gives signals particle by particle.)

Series [3] concerns dendritic cells (DC). The series can be described thus: Maturation of dendritic cells (flow cytometry). In kind it is cell-based, mouse. As to conditions: 16 h incubation; vs NS group, statistically significant. How it is done:
The maturation of dendritic cells (DC) largely determines the immune response or tolerance of the body. […] Therefore, we detected the effect of DP7-C adjuvant on dendritic cell maturation by flow cytometry.
The experimental steps are as follows: • (1) Isolate C57/BL mouse primary bone marrow cells and incubate in the induced medium containing 10 ng/ml of GM-CSF and 10 ng/ml of IL-4 for 5 days. • (2) Add the DP7-C adjuvant into DC cell culture, mix well, and incubate for 16 h. • (3) Collect the stimulated DC cells, wash them twice with PBS, re-suspend the cells in 100 μL of PBS, add 1 μL of anti-mouse CD16/CD32, and block at 4° C. for 30 min. • (4) Wash with PBS for 3 times, add 1 μg of FITC-anti-CD80, APC-anti-CD86 and PE-anti-MHC-II, incubate at room temperature for 30 min, wash PBS for 3 times and re-suspend in 200 μL of PBS for flow cytometry.

Series [4] relates to B16 metastatic melanoma in the lung. The series can be described thus: B16 mouse model of metastatic melanoma in the lung. In kind it is in vivo. On the procedure: In order to further characterize the application potential of DP7-C micelles in tumor therapy, we established a B16 mouse model of metastatic melanoma in the lung and used DP7-C to transmit anti-VEGF siRNA therapeutic genes for therapeutic research. • (1) On day 0, female C57 mice aged 6-8 weeks are […] inoculated with 0.1 mL of cell suspension (containing about 2.5×10^5 B16 cells). • (2) On day 3, mice are randomly divided into 4 groups, 8 mice for each group, and are labeled. • (3) Mice are injected with 7 doses of normal saline (blank control group), blank DP7-C micelle (60 μg), DP7-C/no-sense control siRNA complex (60 μg/12 μg) or DP7-C/VEGF siRNA complex (60 μg/12 μg) respectively through tail veins. • (4) On day 20, when the mice in the control group are already very weak, all the mice are killed by cervical dislocation; the tumor tissues in the lung as well as the heart, liver, spleen, lung and kidney tissues are immediately collected, weighed and analyzed. The collected heart, liver, spleen, lung and kidney tissues are analyzed by HE staining.

The mark [5] stands for this setting: tail vein injection, 7 doses, day 20.

On to `CC[C@H](C)[C@H](NC(=O)[C@H](CCCNC(=N)N)NC(=O)[C@H](Cc1c[nH]c2ccccc12)NC(=O)[C@H](CCC(N)=O)NC(=O)[C@@H](NC(=O)CCC(=O)O[C@H]1CC[C@@]2(C)C(=CC[C@H]3[C@@H]4CC[C@H]([C@H](C)CCCC(C)C)[C@@]4(C)CC[C@@H]32)C1)C(C)C)C(=O)N[C@@H](CCCNC(=N)N)C(=O)N[C@H](C(=O)N[C@@H](C)C(=O)N[C@H](C(=O)N[C@H](C(=O)N[C@@H](CCCNC(=N)N)C(=O)N[C@@H](CCCCN)C(N)=O)[C@@H](C)CC)C(C)C)C(C)C` [DP7-C, Chol-suc-VQWRIRVAVIRK-NH2] ({Succinyl(4-O-cholesteryl)}-VQWRIRVAVIRK-NH2), for which the “critical micelle concentration (CMC)” value in series [1] was determined as 3.47 µg/mL. In series [2], the “total number of cells in the abdominal cavity” value is given as “increased significantly”. Also, the percentage of monocytes in series [2] (abdominal cavity, NS 2.7%) was found to be 32.8%. The compound further displayed a percentage of macrophages in series [2] (abdominal cavity, NS 38.8%) of 50.8%. Besides, the “expression of MHC II, CD80 and CD86” value in series [3] is listed as “increased”. Also, the “HE staining of major organ tissues” value in series [4] (heart, liver, spleen, kidney) is “no significant pathological changes”. Besides, in series [4] (setting [5]), the “average number of tumor nodes” value worked out at 132±22 and the “average weight of lung tissue” value was determined as 0.41 ± 0.1 g.
